# Measurements as given in patent US20110312877A1, “ENGINEERED TUNABLE NANOPARTICLES FOR DELIVERY OF THERAPEUTICS, DIAGNOSTICS, AND EXPERIMENTAL COMPOUNDS AND RELATED COMPOSITIONS FOR THERAPEUTIC USE” (APARNA BIOSCEIENCES, priority 2008, published 2011).
# Where no end group is shown, it is not given here.
# System: HRP-labeled IgG
# Assay: PEI-PEG-Peptide antibody binding and free peptide competition (ELISA)
# Conditions: peptide 0 added after antibody, lowering competition (FIG. 1C)
# Procedure: PPP0 (Pei-PEG-Peptide0) was diluted into the coating buffer (1×TBS, pH7.2) (final concentration: 30 μg/ml) and immediately coated 96-well microplate with 100 µl per well of the diluted PPP0 solution. The plates were sealed and incubated overnight at room temperature.
# Wells were aspirated and washed with 300 µl of washing buffer (1×TBS containing 0.1% Tween 20, pH 7.4). The procedure was repeated two more times for a total of three washes
# In the next step plates were blocked by adding 300 µl 1% BSA in TBS and incubating for two hours.
# […] Next, 50 µl of HRP-labeled IgG (˜3 ug/ml in binding buffer) was added to each of the wells. The plate was shaken on a horizontal microplate shaker at 500±50 rpm for 10 rain and then incubate at 37° C. for 2 hours. After incubation, wells were washed 5 times with washing buffer to remove the competitors and HRP-IgG.
# 150 µl per well of freshly prepared substrate solution was added and incubated for 25-30 min at room temperature. The reaction was stopped by adding 70 µl of 2NH2SO4 into each well. Plate was gently tapped to ensure a thorough mixing. Optical density of each well was measured immediately, using a microplate reader set to 450 nm. Data was analyzed GraphPad Prism software.
substance,measurement,value
"PPP: Fc binding peptide (HWRGWVC)-PEG-PEI conjugate made with SCM-PEG-Mal (3400) and PEI 2K (also: conjugated to PEG(3400)-PEI 2K via SCM-PEG-Mal, site not given here)",off-rate for antibody dissociation from PPP,long
